Measurements reported in the supplement of paper PMC10307832.

Experiments:
Assay in all cases: relative viability (nuclei count vs DMSO), 5 days (fraction); higher = more cells survive
Wnt-C59 + OSI-027 = compound: CC1=NC=CC(=C1)C2=CC=C(C=C2)CC(=O)NC3=CC=C(C=C3)C4=CN=CC=C4 [Wnt-C59] + COc1cccc2cc(-c3nc([C@H]4CC[C@H](C(=O)O)CC4)n4ncnc(N)c34)[nH]c12 [OSI-027] (partner 0.5 µM)
Procedure, shortened: (§1)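 Relative viability was taken as the ratio of nuclei in treated wells to nuclei in vehicle wells. Lung cancer cell lines in 1536-well plates received compounds by pin tool one day after seeding, either one drug alone or a fixed anchor-drug dose plus five library-drug doses (not always all listed) in √10 steps. Nuclei were counted on 4× images after 5 days of treatment, and values are medians of duplicate plates.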

Wnt-C59 + Alpelisib = compound: CC1=NC=CC(=C1)C2=CC=C(C=C2)CC(=O)NC3=CC=C(C=C3)C4=CN=CC=C4 [Wnt-C59] + Cc1nc(NC(=O)N2CCC[C@H]2C(N)=O)sc1-c1ccnc(C(C)(C)C(F)(F)F)c1 [Alpelisib] (partner 2 µM)
Procedure, shortened: as §1

Wnt-C59 + Pemetrexed = compound: CC1=NC=CC(=C1)C2=CC=C(C=C2)CC(=O)NC3=CC=C(C=C3)C4=CN=CC=C4 [Wnt-C59] + Nc1nc2[nH]cc(CCc3ccc(C(=O)N[C@@H](CCC(=O)O)C(=O)O)cc3)c2c(=O)[nH]1 [Pemetrexed] (partner 0.2 µM)
Procedure, shortened: as §1

Wnt-C59 + Olaparib = compound: CC1=NC=CC(=C1)C2=CC=C(C=C2)CC(=O)NC3=CC=C(C=C3)C4=CN=CC=C4 [Wnt-C59] + O=C(c1cc(Cc2n[nH]c(=O)c3ccccc23)ccc1F)N1CCN(C(=O)C2CC2)CC1 [Olaparib] (partner 8 µM)
Procedure, shortened: as §1

| Cell Line | relative viability (Wnt-C59 + OSI-027; first compound 0.001 µM) | relative viability (Wnt-C59 + OSI-027; first compound 0.01 µM) | relative viability (Wnt-C59 + OSI-027; first compound 0.03162 µM) | relative viability (Wnt-C59 + OSI-027; first compound 0.1 µM) | relative viability (Wnt-C59 + Alpelisib; first compound 0.001 µM) | relative viability (Wnt-C59 + Alpelisib; first compound 0.01 µM) | relative viability (Wnt-C59 + Alpelisib; first compound 0.03162 µM) | relative viability (Wnt-C59 + Alpelisib; first compound 0.1 µM) | relative viability (Wnt-C59 + Pemetrexed; first compound 0.001 µM) | relative viability (Wnt-C59 + Pemetrexed; first compound 0.01 µM) | relative viability (Wnt-C59 + Pemetrexed; first compound 0.03162 µM) | relative viability (Wnt-C59 + Pemetrexed; first compound 0.1 µM) | relative viability (Wnt-C59 + Olaparib; first compound 0.001 µM) | relative viability (Wnt-C59 + Olaparib; first compound 0.01 µM) | relative viability (Wnt-C59 + Olaparib; first compound 0.03162 µM) | relative viability (Wnt-C59 + Olaparib; first compound 0.1 µM) |
| --- | --- | --- | --- | --- | --- | --- | --- | --- | --- | --- | --- | --- | --- | --- | --- | --- |
| NCI-H2228 | 0.665 | 0.484 | 0.596 | 0.548 | 0.816 | 0.74 | 0.929 | 0.751 | 0.306 | 0.334 | 0.337 | 0.328 | 1.04 | 0.635 | 0.641 | 0.734 |
| NCI-H2126 | 0.718 | 0.655 | 0.7 | 0.682 | 0.742 | 0.703 | 0.788 | 0.723 | 0.688 | 0.655 | 0.642 | 0.649 | 0.896 | 0.952 | 0.88 | 0.905 |
| EMC-BAC-2 | 0.377 | 0.36 | 0.366 | 0.387 | 0.684 | 0.607 | 0.672 | 0.65 | 0.474 | 0.447 | 0.426 | 0.439 | 0.497 | 0.488 | 0.486 | 0.482 |
| NCI-H520 | 0.256 | 0.339 | 0.3 | 0.252 | 0.932 | 0.969 | 1.06 | 0.785 | 0.655 | 0.626 | 0.787 | 0.682 | 0.299 | 0.313 | 0.381 | 0.357 |
| LXF-289 | 0.779 | 0.807 | 0.828 | 0.809 | 1.05 | 1.03 | 1.04 | 1.02 | 0.897 | 0.827 | 0.916 | 0.91 | 1.14 | 1.09 | 1.03 | 1.04 |
| EPLC-272H | 0.345 | 0.231 | 0.332 | 0.236 | 0.96 | 0.861 | 0.976 | 0.921 | 0.38 | 0.354 | 0.318 | 0.315 | 0.778 | 0.854 | 0.942 | 0.842 |
| NCI-H838 | 0.435 | 0.385 | 0.331 | 0.411 | 1.06 | 0.98 | 1.13 | 1.02 | 0.235 | 0.24 | 0.267 | 0.242 | 0.765 | 0.806 | 0.807 | 0.739 |
| NCI-H2405 | 0.633 | 0.554 | 0.579 | 0.476 | 0.89 |  | 0.646 | 0.789 | 1.02 | 1.01 | 0.989 | 1.08 | 0.851 | 0.879 | 0.898 | 0.861 |
| LC-2-ad | 1.18 | 0.822 | 0.937 | 0.729 | 0.824 | 0.846 | 0.953 | 0.778 | 0.282 | 0.297 | 0.271 | 0.283 | 0.725 | 0.74 | 0.716 | 0.356 |
| NCI-H3122 | 1.02 | 0.978 | 1.32 | 0.891 | 0.836 | 0.784 | 0.872 | 0.716 | 0.219 | 0.216 | 0.197 | 0.195 | 0.633 | 0.549 | 0.637 | 0.504 |
| A-427 | 0.479 | 0.457 | 0.478 | 0.503 | 1.07 | 1 | 1.14 | 1.08 | 0.936 | 1.04 | 0.994 | 1.1 | 0.767 | 0.79 | 0.751 | 0.789 |
| 201T | 0.717 | 0.725 | 0.761 | 0.627 | 1.06 | 1.01 | 0.99 | 1 | 0.357 | 0.326 | 0.311 | 0.36 | 0.845 | 0.884 | 0.841 | 0.867 |
| NCI-H1944 | 0.407 | 0.358 | 0.415 | 0.462 | 0.767 | 0.755 | 0.785 | 0.755 | 0.615 | 0.594 | 0.639 | 0.602 | 0.463 | 0.396 | 0.343 | 0.388 |
| SK-LU-1 | 0.406 | 0.283 | 0.39 | 0.364 | 0.996 | 0.992 | 1.08 | 1.05 | 0.969 | 1 | 1 | 0.973 | 0.444 | 0.476 | 0.4 | 0.434 |
| NCI-H1975 | 0.685 | 0.555 | 0.855 | 0.713 | 0.67 | 0.591 | 0.707 | 0.704 | 0.321 | 0.307 | 0.288 | 0.311 | 0.797 | 0.807 | 0.786 | 0.869 |
| NCI-H322M | 0.53 | 0.498 | 0.442 | 0.399 | 0.747 | 0.715 | 0.718 | 0.478 | 0.649 | 0.589 | 0.579 | 0.569 | 0.704 | 0.804 | 0.828 | 0.765 |
| NCI-H1793 | 0.189 |  | 0.287 | 0.266 | 0.827 | 0.536 | 0.898 | 0.668 | 0.813 | 0.693 | 0.914 | 0.953 | 0.779 | 0.734 | 1.01 | 0.841 |
| RERF-LC-KJ | 0.599 | 0.504 | 0.658 | 0.56 | 0.743 | 0.764 | 0.853 | 0.883 | 0.483 | 0.497 | 0.45 | 0.495 | 0.787 | 0.846 | 1.12 | 0.877 |
| NCI-H23 | 0.634 | 0.499 | 0.781 | 0.578 | 0.68 | 0.663 | 0.822 | 0.584 | 0.589 | 0.595 | 0.59 | 0.703 | 0.353 | 0.256 | 0.362 | 0.333 |
| NCI-H2347 | 0.365 | 0.474 | 0.51 | 0.457 | 0.936 | 1.01 | 0.9 | 0.984 | 0.46 | 0.489 | 0.451 | 0.434 | 0.554 | 0.541 | 0.615 | 0.593 |
